Data: US4355038A, “α-Substituted ureido-benzylpenicillanic acids” (Chugai Seiyaku Kabushiki Kaisha, priority 1980, dated 1982)
Values after ≈ are worked out from the molar mass of the structure shown.

How the values were obtained:
[1] = tested on: Pseudomonas aeruginosa J-272; assay: ED50 in mice infected intraperitoneally with Pseudomonas aeruginosa; type: in vivo, ddY male mice; settings: subcutaneous 1 h and 3 h after inoculation, 1 × 10^4 cells inoculated i.p. in 5% mucin, survival five days after injection
Method: Five-week-old ddY male mice (five constituting one group) weighing 21 to 25 g on average were administered intraperitoneally with 5% mucin suspensions of test microorganisms that were incubated in brain heart infusion agar plates overnight at 37° C.
One hour and three hours after the inoculation, the mice were injected subcutaneously with various concentrations of the test compounds. The ED50 of each test compound was determined from the number of the mice that were still alive five days after injection of the respective doses.

[2] = tested on: Proteus mirabilis 9'; assay: MIC, agar plate doubling dilution method; type: cell-based; settings: HI agar, 37° C., 20 hours, read-out: minimum inhibitory concentration (MIC)
Method: (§1) Invitro antibacterial activity was measured by the agar plate doubling dilution method described below. A test culture incubated overnight in a heart infusion broth was diluted by 100 to 1000 fold and one […] of the culture was inoculated on heart infusion agars (HI agar) containing various concentrations of a specific compound and the inoculates were incubated at 37° C. for 20 hours.

[3] = tested on: Bacillus subtilis POI-219; assay: MIC, agar plate doubling dilution method; type: cell-based; settings: POI219, HI agar, 37° C., 20 hours, read-out: minimum inhibitory concentration (MIC)
Method: as §1

[4] = tested on: Pseudomonas aeruginosa J-169; assay: MIC, agar plate doubling dilution method; type: cell-based; settings: J169, HI agar, 37° C., 20 hours, read-out: minimum inhibitory concentration (MIC)
Method: as §1

[5] = tested on: Klebsiella pneumoniae 15c; assay: MIC, agar plate doubling dilution method; type: cell-based; settings: HI agar, 37° C., 20 hours, read-out: minimum inhibitory concentration (MIC)
Method: as §1

[6] = tested on: Shigella flexneri 2b; assay: MIC, agar plate doubling dilution method; type: cell-based; settings: HI agar, 37° C., 20 hours, read-out: minimum inhibitory concentration (MIC)
Method: as §1

[7] = tested on: Pseudomonas aeruginosa J-272; assay: MIC, agar plate doubling dilution method; type: cell-based; settings: J272, HI agar, 37° C., 20 hours, read-out: minimum inhibitory concentration (MIC)
Method: as §1

[8] = tested on: Staphylococcus aureus 209P; assay: MIC, agar plate doubling dilution method; type: cell-based; settings: HI agar, 37° C., 20 hours, read-out: minimum inhibitory concentration (MIC)
Method: as §1

[9] = tested on: Salmonella paratyphi A; assay: MIC, agar plate doubling dilution method; type: cell-based; settings: Salmonella enterica, 20 h, read-out: minimum inhibitory concentration (MIC)
Method: as §1

[10] = tested on: Escherichia coli NIHJ; assay: MIC, agar plate doubling dilution method; type: cell-based; settings: HI agar, 37° C., 20 hours, read-out: minimum inhibitory concentration (MIC)
Method: as §1

[11] = tested on: Pseudomonas aeruginosa J-169-CM-222; assay: MIC, agar plate doubling dilution method; type: cell-based; settings: J169CM222, HI agar, 37° C., 20 hours, read-out: minimum inhibitory concentration (MIC)
Method: as §1

Compound | ED50 (SC) [1] | MIC [2] | MIC [3] | MIC [4] | MIC [5] | MIC [6] | MIC [7] | MIC [8] | MIC [9] | MIC [10] | MIC [11]
CCN1CCN(C(=O)N[C@@H](C(=O)N[C@@H]2C(=O)N3[C@@H]2SC(C)(C)[C@@H]3C(=O)O)c2ccccc2)C(=O)C1=O [piperacillin, 6-[D(-)-α-(4-ethyl-2,3-dioxo-1-piperazinylcarbonylamino)phenylacetamido]penicillanic acid, reference compound] | 10.0 mg/head | 0.78 µg/mL (≈ 1.51 µM) | 0.2 µg/mL (≈ 0.386 µM) | 12.5 µg/mL (≈ 24.2 µM) | 3.12 µg/mL (≈ 6.03 µM) | 0.78 µg/mL (≈ 1.51 µM) | 12.5 µg/mL (≈ 24.2 µM) | ≤ 0.2 µg/mL | 0.4 µg/mL (≈ 0.773 µM) | 0.2 µg/mL (≈ 0.386 µM) | 25 µg/mL (≈ 48.3 µM)
CC(=O)OCCCN(C(=O)N[C@@H](C(=O)N[C@@H]1C(=O)N2[C@@H]1SC(C)(C)[C@@H]2C(=O)O)c1ccccc1)C(=O)c1ccc(O)c(O)c1 [compound (e), 6-[D(-)-α-{3-(3,4-dihydroxybenzoyl)-3-(3-acetoxypropyl)-1-ureido}-α-phenylacetamido]-penicillanic acid] | 1.71 mg/head | 0.78 µg/mL (≈ 1.24 µM) | 0.4 µg/mL (≈ 0.636 µM) | 3.12 µg/mL (≈ 4.96 µM) | 0.4 µg/mL (≈ 0.636 µM) | ≤ 0.1 µg/mL | 0.4 µg/mL (≈ 0.636 µM) | 1.56 µg/mL (≈ 2.48 µM) | ≤ 0.1 µg/mL | 0.78 µg/mL (≈ 1.24 µM) | 6.25 µg/mL (≈ 9.94 µM)
CN(C(=O)N[C@@H](C(=O)N[C@@H]1C(=O)N2[C@@H]1SC(C)(C)[C@@H]2C(=O)O)c1ccccc1)C(=O)c1ccc(O)c(O)c1 [compound Z, 6-[D(-)-α-{3-(3,4-dihydroxybenzoyl)-3-methyl-1-ureido}-α-phenylacetamido]penicillanic acid, reference compound] | 2.30 mg/head | 0.78 µg/mL (≈ 1.44 µM) | 0.1 µg/mL (≈ 0.184 µM) | 0.2 µg/mL (≈ 0.369 µM) | ≤ 0.1 µg/mL | ≤ 0.1 µg/mL | 0.1 µg/mL (≈ 0.184 µM) | 0.4 µg/mL (≈ 0.737 µM) | ≤ 0.1 µg/mL | 0.2 µg/mL (≈ 0.369 µM) | 0.4 µg/mL (≈ 0.737 µM)
COCCN(C(=O)N[C@@H](C(=O)N[C@@H]1C(=O)N2[C@@H]1SC(C)(C)[C@@H]2C(=O)O)c1ccccc1)C(=O)c1ccc(O)c(O)c1 [compound (d), 6-[D(-)-α-{3-(3,4-dihydroxybenzoyl)-3-(2-methyoxyethyl)-1-ureido}-α-phenylacetamide]-penicillanic acid] | 1.52 mg/head | 0.2 µg/mL (≈ 0.341 µM) | 0.4 µg/mL (≈ 0.682 µM) | 3.12 µg/mL (≈ 5.32 µM) | 0.2 µg/mL (≈ 0.341 µM) | ≤ 0.1 µg/mL | 0.78 µg/mL (≈ 1.33 µM) | 0.78 µg/mL (≈ 1.33 µM) | ≤ 0.1 µg/mL | 0.4 µg/mL (≈ 0.682 µM) | 3.12 µg/mL (≈ 5.32 µM)
CC1(C)S[C@@H]2[C@H](NC(=O)[C@H](NC(=O)N(CCOCCO)C(=O)c3ccc(O)c(O)c3)c3ccccc3)C(=O)N2[C@H]1C(=O)O [compound (c), 6-[D(-)-α-[3-(3,4-dihydroxybenzoyl)-3-{2-(2-hydroxyethoxy)ethyl}-1-ureidol]-α-phenylacetamido]-penicillanic acid] | 1.48 mg/head | 1.56 µg/mL (≈ 2.53 µM) | 0.1 µg/mL (≈ 0.162 µM) | 0.78 µg/mL (≈ 1.26 µM) | 0.4 µg/mL (≈ 0.649 µM) | ≤ 0.1 µg/mL | 0.2 µg/mL (≈ 0.324 µM) | 0.4 µg/mL (≈ 0.649 µM) | ≤ 0.1 µg/mL | 0.4 µg/mL (≈ 0.649 µM) | 1.56 µg/mL (≈ 2.53 µM)
CC1(C)S[C@@H]2[C@H](NC(=O)[C@H](NC(=O)N(CCCO)C(=O)c3ccc(O)c(O)c3)c3ccccc3)C(=O)N2[C@H]1C(=O)O [compound (a), 6-[D(-)-α-{3-(3,4-dihydroxybenzoyl)-3-(3-hydroxypropyl)-1-ureido}-α-phenylacetamido]penicillanic acid] | 0.61 mg/head | 1.56 µg/mL (≈ 2.66 µM) | 0.2 µg/mL (≈ 0.341 µM) | 0.78 µg/mL (≈ 1.33 µM) | 0.4 µg/mL (≈ 0.682 µM) | ≤ 0.1 µg/mL | 0.4 µg/mL (≈ 0.682 µM) | 0.78 µg/mL (≈ 1.33 µM) | ≤ 0.1 µg/mL | 0.4 µg/mL (≈ 0.682 µM) | 3.12 µg/mL (≈ 5.32 µM)
CC1(C)S[C@@H]2[C@H](NC(=O)[C@H](NC(=O)N(CCO)C(=O)c3ccc(O)c(O)c3)c3ccccc3)C(=O)N2[C@H]1C(=O)O [compound (b), 6-[D(-)-α-{3-(3,4-dihydroxybenzoyl)-3-(2-hydroxyethyl)-1-ureido}-α-phenylacetamide]penicillanic acid] | 1.20 mg/head | 3.12 µg/mL (≈ 5.45 µM) | 0.78 µg/mL (≈ 1.36 µM) | 3.12 µg/mL (≈ 5.45 µM) | 3.12 µg/mL (≈ 5.45 µM) | ≤ 0.1 µg/mL | 0.78 µg/mL (≈ 1.36 µM) | 1.56 µg/mL (≈ 2.72 µM) | ≤ 0.1 µg/mL | 6.25 µg/mL (≈ 10.9 µM) | 25 µg/mL (≈ 43.7 µM)
CC1(C)S[C@@H]2[C@H](NC(=O)[C@H](NC(=O)N(CCCO)C(=O)c3ccc(O)c(O)c3)c3ccc(O)cc3)C(=O)N2[C@H]1C(=O)O [compound (f), 6-[D(-)-α-{3-(3,4-dihydroxybenzoyl)-3-(3-hydroxypropyl)-1-ureido}-α-(4-hydroxyphenyl)acetamido]penicillanic acid] | 1.18 mg/head | 1.56 µg/mL (≈ 2.59 µM) | 0.4 µg/mL (≈ 0.664 µM) | 0.78 µg/mL (≈ 1.29 µM) | 0.4 µg/mL (≈ 0.664 µM) | ≤ 0.1 µg/mL | 0.2 µg/mL (≈ 0.332 µM) | 0.78 µg/mL (≈ 1.29 µM) | ≤ 0.1 µg/mL | 0.78 µg/mL (≈ 1.29 µM) | 3.12 µg/mL (≈ 5.18 µM)
